Reference: the supplement of paper PMC9663587

Assays:
[1] = compound: CCc1cnn2c(NCc3ccc[n+]([O-])c3)cc(N3CCCC[C@H]3CCO)nc12
LEE011/Ribociclib [2] = compound: T1, CN(C)C(=O)c1cc2cnc(Nc3ccc(N4CCNCC4)cn3)nc2n1C1CCCC1 [LEE011/Ribociclib]
Doxorubicin = compound: COc1cccc2c1C(=O)c1c(O)c3c(c(O)c1C2=O)C[C@@](O)(C(=O)CO)C[C@@H]3O[C@H]1C[C@H](N)[C@H](O)[C@H](C)O1 [Doxorubicin]
Pictilisib/GDC0941 = compound: CS(=O)(=O)N1CCN(Cc2cc3nc(-c4cccc5[nH]ncc45)nc(N4CCOCC4)c3s2)CC1 [Pictilisib/GDC0941]
Ceritinib/LDK378 = compound: Cc1cc(Nc2ncc(Cl)c(Nc3ccccc3S(=O)(=O)C(C)C)n2)c(OC(C)C)cc1C1CCNCC1 [Ceritinib/LDK378]
[3] = compound: Cc1nn(C)c(COc2ccc(N3CCN(S(=O)(=O)N(C)C)CC3)cc2)c1-c1cccc2c(CCCOc3cccc4ccccc34)c(C(=O)O)n(CCN3CCOCC3)c12
YKL-5-124 = compound: C=CC(=O)Nc1ccc(C(=O)Nc2[nH]nc3c2CN(C(=O)N[C@H](CN(C)C)c2ccccc2)C3(C)C)cc1 [YKL-5-124]; experiment: increase in dead-cell fraction, 72 h; higher = more death;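 note: breast cancer cell lines in 384-well plates, stained with Hoechst plus LIVE/DEAD far red dye and imaged, cells above an LDR intensity threshold counted dead, Hoechst-negative corpses included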
BSJ-03-123 = compound: CC(=O)c1c(C)c2cnc(Nc3ccc(N4CCN(CCOCCOCCOCCNC(=O)COc5cccc6c5C(=O)N(C5CCC(=O)NC5=O)C6=O)CC4)cn3)nc2n(C2CCCC2)c1=O [BSJ-03-123]; experiment: as above
[4] = compound: CC(=O)c1c(C)c2cnc(Nc3ccc(N4CCNCC4)cn3)nc2n(C2CCCC2)c1=O; experiment: as above
[5] = compound: CCN1CCN(Cc2ccc(Nc3ncc(F)c(-c4cc(F)c5nc(C)n(C(C)C)c5c4)n3)nc2)CC1; experiment: as above
Neratinib/HKI272 = compound: CCOc1cc2ncc(C#N)c(Nc3ccc(OCc4ccccn4)c(Cl)c3)c2cc1NC(=O)/C=C/CN(C)C [Neratinib/HKI272]; experiment: as above
[6] = compound: CCc1cnn2c(NCc3ccc[n+]([O-])c3)cc(N3CCCC[C@H]3CCO)nc12; experiment: as above
LEE011/Ribociclib [7] = compound: T1, LEE011/Ribociclib; experiment: as above
THZ531 = compound: CN(C)C/C=C/C(=O)Nc1ccc(C(=O)N2CCC[C@@H](Nc3ncc(Cl)c(-c4c[nH]c5ccccc45)n3)C2)cc1 [THZ531]; experiment: as above
THZ1 = compound: CN(C)C/C=C/C(=O)Nc1ccc(C(=O)Nc2cccc(Nc3ncc(Cl)c(-c4c[nH]c5ccccc45)n3)c2)cc1 [THZ1]; experiment: as above
Flavopiridol = compound: CN1CC[C@H](c2c(O)cc(O)c3c(=O)cc(-c4ccccc4Cl)oc23)[C@H](O)C1 [Flavopiridol]; experiment: as above
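Throughout, for GR50, 72 h: breast cancer and non-malignant breast epithelial cell lines, Deep Dye Drop or Dye Drop imaging, nine half-log doses, GR normalized to time-zero plates and DMSO-only controls.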

## CAL120
[1]
  GR50, 72 h: 0.00989 µM
LEE011/Ribociclib [2]
  GR50, 72 h: > 10 µM
Doxorubicin
  GR50, 72 h: 0.00944 µM
Pictilisib/GDC0941
  GR50, 72 h: 2.07 µM
Ceritinib/LDK378
  GR50, 72 h: 0.799 µM
[3]
  GR50, 72 h: > 10 µM
YKL-5-124; 0.001 µM
  increase in dead-cell fraction: 0.0168
YKL-5-124; 0.003162 µM
  increase in dead-cell fraction: 0.0283
YKL-5-124; 0.01 µM
  increase in dead-cell fraction: 0.0348
YKL-5-124; 0.03162 µM
  increase in dead-cell fraction: 0.0304
YKL-5-124; 0.1 µM
  increase in dead-cell fraction: 0.0343
YKL-5-124; 0.3162 µM
  increase in dead-cell fraction: 0.0427
YKL-5-124; 1 µM
  increase in dead-cell fraction: 0.0333
YKL-5-124; 3.162 µM
  increase in dead-cell fraction: 0.0461
YKL-5-124; 10 µM
  increase in dead-cell fraction: 0.0476
BSJ-03-123; 0.001 µM
  increase in dead-cell fraction: -0.0001
BSJ-03-123; 0.003162 µM
  increase in dead-cell fraction: 0.0019
BSJ-03-123; 0.01 µM
  increase in dead-cell fraction: -0.0014
BSJ-03-123; 0.03162 µM
  increase in dead-cell fraction: -0.0007
BSJ-03-123; 0.1 µM
  increase in dead-cell fraction: -0.0013
BSJ-03-123; 0.3162 µM
  increase in dead-cell fraction: 0.0033
BSJ-03-123; 1 µM
  increase in dead-cell fraction: 0.004
BSJ-03-123; 3.162 µM
  increase in dead-cell fraction: 0.0059
BSJ-03-123; 10 µM
  increase in dead-cell fraction: 0.0482
[4]; 0.0003162 µM
  increase in dead-cell fraction: -0.0011
[4]; 0.001 µM
  increase in dead-cell fraction: -0.0036
[4]; 0.003162 µM
  increase in dead-cell fraction: 0.0022
[4]; 0.01 µM
  increase in dead-cell fraction: -0.0072
[4]; 0.03162 µM
  increase in dead-cell fraction: 0.0004
[4]; 0.1 µM
  increase in dead-cell fraction: 0.0047
[4]; 0.3162 µM
  increase in dead-cell fraction: 0.0049
[4]; 1 µM
  increase in dead-cell fraction: 0.0051
[4]; 3.162 µM
  increase in dead-cell fraction: 0.0096
[5]; 0.001 µM
  increase in dead-cell fraction: -0.0028
[5]; 0.003162 µM
  increase in dead-cell fraction: -0.0021
[5]; 0.01 µM
  increase in dead-cell fraction: 0.0053
[5]; 0.03162 µM
  increase in dead-cell fraction: 0.0134
[5]; 0.1 µM
  increase in dead-cell fraction: 0.0398
[5]; 0.3162 µM
  increase in dead-cell fraction: 0.0603
[5]; 1 µM
  increase in dead-cell fraction: 0.146
[5]; 3.162 µM
  increase in dead-cell fraction: 0.248
[5]; 10 µM
  increase in dead-cell fraction: 0.249
Neratinib/HKI272; 0.0003162 µM
  increase in dead-cell fraction: -0.0012
Neratinib/HKI272; 0.001 µM
  increase in dead-cell fraction: -0.0046
Neratinib/HKI272; 0.003162 µM
  increase in dead-cell fraction: -0.0039
Neratinib/HKI272; 0.01 µM
  increase in dead-cell fraction: -0.0045
Neratinib/HKI272; 0.03162 µM
  increase in dead-cell fraction: 0.0031
Neratinib/HKI272; 0.1 µM
  increase in dead-cell fraction: -0.0024
Neratinib/HKI272; 0.3162 µM
  increase in dead-cell fraction: 0.0027
Neratinib/HKI272; 1 µM
  increase in dead-cell fraction: 0.0247
Neratinib/HKI272; 3.162 µM
  increase in dead-cell fraction: 0.571
[6]; 0.0001 µM
  increase in dead-cell fraction: -0.0093
[6]; 0.0003162 µM
  increase in dead-cell fraction: -0.0043
[6]; 0.001 µM
  increase in dead-cell fraction: -0.0016
[6]; 0.003162 µM
  increase in dead-cell fraction: 0.0101
[6]; 0.01 µM
  increase in dead-cell fraction: 0.132
[6]; 0.03162 µM
  increase in dead-cell fraction: 0.241
[6]; 0.1 µM
  increase in dead-cell fraction: 0.233
[6]; 0.3162 µM
  increase in dead-cell fraction: 0.25
[6]; 1 µM
  increase in dead-cell fraction: 0.208
LEE011/Ribociclib [7]; 0.001 µM
  increase in dead-cell fraction: -0.0051
LEE011/Ribociclib [7]; 0.003162 µM
  increase in dead-cell fraction: -0.0023
LEE011/Ribociclib [7]; 0.01 µM
  increase in dead-cell fraction: 0.0009
LEE011/Ribociclib [7]; 0.03162 µM
  increase in dead-cell fraction: -0.0029
LEE011/Ribociclib [7]; 0.1 µM
  increase in dead-cell fraction: 0
LEE011/Ribociclib [7]; 0.3162 µM
  increase in dead-cell fraction: 0.001
LEE011/Ribociclib [7]; 1 µM
  increase in dead-cell fraction: -0.0006
LEE011/Ribociclib [7]; 3.162 µM
  increase in dead-cell fraction: 0.0024
LEE011/Ribociclib [7]; 10 µM
  increase in dead-cell fraction: 0.0041
THZ531; 0.0001 µM
  increase in dead-cell fraction: 0.0032
THZ531; 0.0003162 µM
  increase in dead-cell fraction: -0.0012
THZ531; 0.001 µM
  increase in dead-cell fraction: -0.0004
THZ531; 0.003162 µM
  increase in dead-cell fraction: -0.0009
THZ531; 0.01 µM
  increase in dead-cell fraction: -0.0022
THZ531; 0.03162 µM
  increase in dead-cell fraction: 0.0046
THZ531; 0.1 µM
  increase in dead-cell fraction: 0.0275
THZ531; 0.3162 µM
  increase in dead-cell fraction: 0.0465
THZ531; 1 µM
  increase in dead-cell fraction: 0.0403
THZ1; 0.0001 µM
  increase in dead-cell fraction: -0.0036
THZ1; 0.0003162 µM
  increase in dead-cell fraction: 0.0008
THZ1; 0.001 µM
  increase in dead-cell fraction: -0.0008
THZ1; 0.003162 µM
  increase in dead-cell fraction: 0.0033
THZ1; 0.01 µM
  increase in dead-cell fraction: 0.0048
THZ1; 0.03162 µM
  increase in dead-cell fraction: 0.0266
THZ1; 0.1 µM
  increase in dead-cell fraction: 0.0311
THZ1; 0.3162 µM
  increase in dead-cell fraction: 0.0265
THZ1; 1 µM
  increase in dead-cell fraction: 0.0708
Flavopiridol; 0.0001 µM
  increase in dead-cell fraction: -0.0013
Flavopiridol; 0.0003162 µM
  increase in dead-cell fraction: 0.002
Flavopiridol; 0.001 µM
  increase in dead-cell fraction: 0.0027
Flavopiridol; 0.003162 µM
  increase in dead-cell fraction: -0.0004
Flavopiridol; 0.01 µM
  increase in dead-cell fraction: -0.0008
Flavopiridol; 0.03162 µM
  increase in dead-cell fraction: 0.0016
Flavopiridol; 0.1 µM
  increase in dead-cell fraction: 0.0004
Flavopiridol; 0.3162 µM
  increase in dead-cell fraction: 0.0194
Flavopiridol; 1 µM
  increase in dead-cell fraction: 0.0425
